This note sets out measurements from ChEMBL document CHEMBL1201862, “PubChem BioAssay data set” (2004).

Test systems include DMS-114; SNB-78; XF498; DMS-273; DLD-1; M19-MEL; RXF 631; KM-20L2; HOP-18.
What all share (assay): inhibition of tumour cell growth, NCI panel, 48 h

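96-well plates; 48 h exposure; 5 concentrations. Endpoints by linear interpolation between flanking doses. Not reached: highest tested concentration assigned. GI50 is the concentration that inhibits growth by half.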 Active and inactive are the calls of the source. Cut-off read from the data, not from the text of the source: active = GI50 up to about 1.1 µM and inactive = higher.

With `N/C(=N\O)N/N=C/c1ccc(C(F)(F)F)cc1`, the GI50 was 18.4 µM (inactive) in the assay on DMS-114; 39.4 µM (inactive) with SNB-78; 13.8 µM (inactive) with XF498; 16.6 µM (inactive) in the assay on DMS-273; 24.7 µM (inactive) with DLD-1; 35.2 µM (inactive) with M19-MEL.
For `NC1=C(Br)C(=O)c2ncccc2C1=O`, the GI50 with DMS-114 was 0.16 µM (active); in the assay on RXF 631, 1.79 µM (inactive); in the assay on SNB-78 it was 0.828 µM (active); in the assay on XF498, 0.998 µM (active); with KM-20L2 it was 1.86 µM (inactive); in the assay with DMS-273, 0.352 µM (active). Also, the GI50 is 0.607 µM (active) in the assay with DLD-1 and 0.159 µM (active) in the assay on M19-MEL.
`C[N+](C)(C)Cc1c(CC#N)[nH]c2ccccc12`: the GI50 with DMS-114, in the assay on XF498, in the assay on KM-20L2, in the assay with DMS-273, with DLD-1 and in the assay on M19-MEL was > 100 µM (inactive) throughout.
As for `CCOC(=O)C(=O)Nc1c(C)cccc1C(C)(C)C`, the GI50 in the assay with DMS-114, in the assay with RXF 631, in the assay on SNB-78, in the assay on XF498, in the assay with KM-20L2 and with DMS-273 was > 100 µM (inactive) throughout. For the same compound, the GI50 in the assay with HOP-18 and with M19-MEL was > 100 µM (inactive) each time.
Regarding `COC1OC(CO)C(O)C(O)C1Br` (configuration not stated), the GI50 in the assay with RXF 631, with SNB-78, with XF498, in the assay on KM-20L2, in the assay on DMS-273 and in the assay on DLD-1 was > 100 µM (inactive) each time. For the same compound, the GI50 in the assay on HOP-18 and in the assay on M19-MEL was > 100 µM (inactive) each time.
With `O=C1COc2cc(NC(=S)Nc3ccccc3)ccc2N1`, the GI50 in the assay with DMS-114, with RXF 631, in the assay with SNB-78, in the assay with XF498, in the assay on KM-20L2 and in the assay on DMS-273 was > 100 µM (inactive) in each case. The GI50 with DLD-1, with HOP-18 and in the assay with M19-MEL was > 100 µM (inactive) throughout.
In the case of `NC(=O)CCC(NC(=O)Cc1ccccc1)C(=O)O.NC(CCC(=O)NC(=O)Cc1ccccc1)C(=O)O` (configuration not stated), the GI50 in the assay on DMS-114, in the assay with KM-20L2, in the assay with DLD-1, in the assay with HOP-18 and with M19-MEL was > 8130 µM (inactive) each time.
Take `Cn1c2ccccc2n2c3nc4ccccc4nc3c(C#N)c12`: the GI50 in the assay with DMS-114 was > 100 µM (inactive); in the assay with XF498, > 100 µM (inactive); in the assay on DMS-273 it was > 100 µM (inactive); in the assay with DLD-1 it was < 0.01 µM (active); with HOP-18 it was > 100 µM (inactive); in the assay with M19-MEL, < 0.01 µM (active).
In the case of `COc1ccc2c3c(c(C(=O)c4ccccc4)oc13)CCC2`, the GI50 with DMS-114, in the assay on RXF 631, in the assay with SNB-78, in the assay on XF498, in the assay on KM-20L2 and in the assay on DMS-273 was > 100 µM (inactive) each time. In addition, the GI50 in the assay with DLD-1, in the assay with HOP-18 and with M19-MEL was > 100 µM (inactive) in each case.
With `C/C(CC(=O)N(C(C)C)C(C)C)=N\NC(=O)c1ccncc1`, the GI50 with RXF 631, with SNB-78, with XF498, in the assay with KM-20L2, in the assay with DMS-273 and in the assay on DLD-1 was > 100 µM (inactive) in each case. Also, the GI50 in the assay on HOP-18 and in the assay on M19-MEL was > 100 µM (inactive) throughout.
`O=Cc1cn(S(=O)(=O)c2ccccc2)c2ccccc12`: the GI50 was 24.8 µM (inactive) in the assay on DMS-114; 53.7 µM (inactive) in the assay on RXF 631; 41.3 µM (inactive) in the assay with SNB-78; 46 µM (inactive) in the assay with XF498; > 100 µM (inactive) with KM-20L2; 27.2 µM (inactive) with DLD-1. Also, the GI50 with HOP-18 was 32.4 µM (inactive); in the assay on M19-MEL, 37.5 µM (inactive).
`COc1ccc2c3c([nH]c2c1[N+](=O)[O-])C(C)N(Cc1ccccc1)CC3` (configuration not stated): the GI50 in the assay with DMS-114 is 3.39 µM (inactive); in the assay on SNB-78 it was 3.59 µM (inactive); with KM-20L2, 3.78 µM (inactive); in the assay on DMS-273, 1.04 µM (active); in the assay on DLD-1 it was > 100 µM (inactive).
As for `COc1ccc(/C(Cl)=C(\C=N/O)c2ccc(OC)c(OC)c2)cc1OC`, the GI50 with DMS-114 was 30.8 µM (inactive); in the assay with SNB-78 it was 75.5 µM (inactive); in the assay on XF498 it was > 100 µM (inactive); in the assay with KM-20L2 it was > 100 µM (inactive); in the assay with DMS-273 it was > 100 µM (inactive); with DLD-1, > 100 µM (inactive). Besides, the GI50 with HOP-18 and in the assay with M19-MEL was > 100 µM (inactive) each time.
On to `CCCCc1c2c(nc3c1CC/C(=C\c1ccc([N+](=O)[O-])cc1)C3=O)CCCC2`, for which the GI50 is 2.1 µM (inactive) in the assay with DMS-114; 1.96 µM (inactive) in the assay on SNB-78; 2.01 µM (inactive) in the assay with KM-20L2; 1.76 µM (inactive) in the assay with DMS-273; 1.75 µM (inactive) in the assay on DLD-1; 2.29 µM (inactive) in the assay with M19-MEL.
`O=C(c1ccccc1)c1nc2c(Cl)ccc(Cl)c2cc1C(Br)Br`: the GI50 was 2.04 µM (inactive) in the assay on DMS-114; 1.78 µM (inactive) with RXF 631; 2.06 µM (inactive) in the assay with SNB-78; 1.07 µM (active) in the assay on XF498; 1.04 µM (active) in the assay with KM-20L2; 1.32 µM (inactive) in the assay with DMS-273. Besides, the GI50 in the assay with DLD-1 was 0.444 µM (active); with HOP-18, 1.66 µM (inactive); in the assay with M19-MEL, 1.83 µM (inactive).
For `CC(C)(C)c1cc(C#N)c2c(c1)C(=O)OC2(c1ccccc1)c1ccccc1C#N` (configuration not stated), the GI50 with DMS-114, in the assay with SNB-78, with XF498, in the assay on KM-20L2, in the assay with DMS-273 and in the assay with DLD-1 was > 100 µM (inactive) throughout. For the same compound, the GI50 in the assay on HOP-18 and with M19-MEL was > 100 µM (inactive) in each case.
In the case of `Cc1ccc(C)c2c1CCc1cc3ccccc3nc1-2`, the GI50 with DMS-114 is > 100 µM (inactive); in the assay on SNB-78, > 100 µM (inactive); in the assay with XF498, > 100 µM (inactive); with KM-20L2, > 100 µM (inactive); in the assay on DLD-1, > 100 µM (inactive); in the assay with HOP-18, 2.65 µM (inactive). Also, the GI50 with M19-MEL is > 100 µM (inactive).
On to `COc1cc(C(=O)C/C(CCC(=O)Nc2ccc(Cl)cc2C)=N/NC(=O)C(N)=O)ccc1O`, for which the GI50 in the assay with DMS-114, with SNB-78, in the assay with XF498, in the assay on KM-20L2, in the assay on DMS-273 and in the assay on DLD-1 was > 100 µM (inactive) in each case. Further, the GI50 in the assay on HOP-18 and in the assay with M19-MEL was > 100 µM (inactive) in each case.
As for `O=C1C2=C(c3ccccc31)C(c1ccc(F)cc1)N1C(=O)CCSC1=N2` (configuration not stated), the GI50 was 71.6 µM (inactive) in the assay with DMS-114; > 100 µM (inactive) in the assay on XF498; > 100 µM (inactive) in the assay with KM-20L2; > 100 µM (inactive) in the assay with DMS-273; > 100 µM (inactive) in the assay with DLD-1; > 100 µM (inactive) in the assay on M19-MEL.
For `COc1c(C)cc2c(c1O)C1NC(C2)[C@H](O)N2C3COC(=O)[C@@]4(CS[C@@H](c5c(OC(C)=O)c(C)c6c(c53)OCO6)C12)NCCC1=C4NC2C=CC=CC12` (some centres not stated), the GI50 with DMS-114, with RXF 631, in the assay with XF498, in the assay with KM-20L2, with DMS-273 and in the assay on DLD-1 was < 0.01 µM (active) in each case. The GI50 in the assay on M19-MEL is < 0.01 µM (active).
As to `CC[P+](C)(Cc1ccccc1)c1ccccc1.O=C(OC(C(=O)[O-])C(OC(=O)c1ccccc1)C(=O)O)c1ccccc1` (configuration not stated), the GI50 was > 100 µM (inactive) in the assay on SNB-78; > 100 µM (inactive) with XF498; > 100 µM (inactive) in the assay on KM-20L2; > 100 µM (inactive) with DMS-273; > 100 µM (inactive) in the assay with DLD-1; 5.47 µM (inactive) in the assay on HOP-18. The GI50 with M19-MEL was > 100 µM (inactive).
With `Cc1ccc(C)c(NC(=O)C(=O)C(C2C(C)CC(=O)C2CC(=O)O)[N+](=O)[O-])c1` (configuration not stated), the GI50 in the assay on DMS-114, with RXF 631, in the assay on SNB-78, in the assay with XF498, with KM-20L2 and with DLD-1 was > 100 µM (inactive) in each case. Further, in the assay on M19-MEL, the GI50 is > 100 µM (inactive).
For the compound `O=C(/C=C/c1c(O)ccc2ccccc12)c1ccc([N+](=O)[O-])cc1`, the GI50 in the assay with DMS-114 was 21.3 µM (inactive); with SNB-78, 21.6 µM (inactive); with XF498 it was 27.5 µM (inactive); with KM-20L2, > 100 µM (inactive); in the assay on DMS-273, > 78.7 µM (inactive); with DLD-1 it was 18.7 µM (inactive). The values for the GI50 with HOP-18 and in the assay on M19-MEL were 15.2 µM (inactive) and 18.5 µM (inactive), respectively.
